Reference: patent US4100346A, “Certain 7(o-amino-methyl- or methylaminomethylphenyl- or cyclohexadienyl- or thienylacetamide)-3[1-carboxymethyl-(or ethyl- or propyl-)-tetrazol-5-ylthiomethyl]-3-cephem-4-carboxylic acids” (Bristol-Myers Company, priority 1976, dated 1978)
Converted amounts (≈) assume the structure as drawn. Like-named read-outs stand apart in the source and are kept apart here.

Assays:
Arizona hinshawii = test: Growth inhibitory activity, antibiotic dilution technique; conditions: Salmonella enterica, read-out: Minimum inhibitory concentration
Pasteurella multocida = test: as above; conditions: read-out: Minimum inhibitory concentration
Escherichia coli [1] = test: Effect of inoculum size on susceptibility of Enterobacteriaceae
Klebsiella pneumoniae = test: Minimum growth inhibitory and bactericidal concentrations for Enterobacteriaceae; assay type: cell-based; conditions: for MBC: read-out: MBC, minimum bactericidal concentration; for MIC: read-out: MIC, Minimum growth inhibitory concentration
Excerpt: (§1) Miscellaneous. Methods for determining bactericidal activity and susceptibility to cell-free β-lactamase were those previously used; Leitner et al., BL-S640, A Cephalosporin With a Broad Spectrum of Antibacterial Activity: Properties in vitro, Antimicrob. Agents Chemother. 7:298-305 (1975).
(§2) *MIC, Minimum growth inhibitory concentration; MBC, minimum bactericidal
(§3) concentration; expressed as micrograms per milliliter. The inoculum was […]

Proteus rettgeri = test: as above; assay type: cell-based; conditions: Providencia rettgeri, inoculum 10^4 cells; for MBC: read-out: MBC, minimum bactericidal concentration; for MIC: read-out: MIC, Minimum growth inhibitory concentration
Excerpt: as §1, §2, §3

Enterobacter cloacae = test: as above; assay type: cell-based; conditions: for MBC: read-out: MBC, minimum bactericidal concentration; for MIC: read-out: MIC, Minimum growth inhibitory concentration
Excerpt: as §1, §2, §3

Enterobacter aerogenes [2] = test: as above; assay type: cell-based; conditions: Klebsiella aerogenes, inoculum 10^4 cells; for MBC: read-out: MBC, minimum bactericidal concentration; for MIC: read-out: MIC, Minimum growth inhibitory concentration
Excerpt: as §1, §2, §3

Escherichia coli [3] = test: as above; assay type: cell-based; conditions: for MBC: read-out: MBC, minimum bactericidal concentration; for MIC: read-out: MIC, Minimum growth inhibitory concentration
Excerpt: as §1, §2, §3

Proteus mirabilis = test: as above; assay type: cell-based; conditions: for MBC: read-out: MBC, minimum bactericidal concentration; for MIC: read-out: MIC, Minimum growth inhibitory concentration
Excerpt: as §1, §2, §3

Proteus vulgaris = test: as above; assay type: cell-based; conditions: Proteus vulgaris, inoculum 10^4 cells; for MBC: read-out: MBC, minimum bactericidal concentration; for MIC: read-out: MIC, Minimum growth inhibitory concentration
Excerpt: as §1, §2, §3

Erwinia sp. = test: Growth inhibitory activity, antibiotic dilution technique; conditions: read-out: Minimum inhibitory concentration
Neisseria gonorrhoeae = test: as above
Citrobacter sp. = test: as above
Enterobacter aerogenes [4] = test: Effect of inoculum size on susceptibility of Enterobacteriaceae; conditions: Klebsiella aerogenes, read-out: Minimum Inhibitory Concentration, Enterobacter aerogenes strain 1
[5] = Klebsiella pneumoniae strain 1, inoculum 10^4 cells
[6] = Klebsiella pneumoniae strain 2, inoculum 10^4 cells
[7] = Klebsiella pneumoniae strain 3, inoculum 10^4 cells
[8] = Klebsiella pneumoniae strain 4, inoculum 10^4 cells
[9] = Klebsiella pneumoniae strain 5, inoculum 10^4 cells
[10] = Klebsiella pneumoniae strain 6, inoculum 10^4 cells
[11] = Enterobacter cloacae strain 3, inoculum 10^4 cells
[12] = Enterobacter cloacae strain 4, inoculum 10^4 cells
[13] = Enterobacter cloacae strain 8, inoculum 10^4 cells
[14] = Enterobacter aerogenes strain 1
[15] = Enterobacter aerogenes strain 2
[16] = Enterobacter aerogenes strain 3
[17] = Escherichia coli strain 1, inoculum 10^4 cells
[18] = Escherichia coli strain 2, inoculum 10^4 cells
[19] = Escherichia coli strain 3, inoculum 10^4 cells
[20] = Escherichia coli strain 4, inoculum 10^4 cells
[21] = Escherichia coli strain 5, inoculum 10^4 cells
[22] = Escherichia coli strain 6, inoculum 10^4 cells
[23] = Proteus mirabilis strain 1, inoculum 10^4 cells
[24] = Proteus mirabilis strain 2, inoculum 10^4 cells
[25] = Proteus mirabilis strain 3, inoculum 10^4 cells
[26] = Proteus mirabilis strain 4, inoculum 10^4 cells
[27] = Proteus mirabilis strain 5, inoculum 10^4 cells

With `Cc1nnc(SCC2=C(C(=O)O)N3C(=O)[C@@H](NC(=O)Cn4cnnn4)[C@H]3SC2)s1` [Cefazolin] the MIC (Arizona hinshawii) was 1 µg/mL (≈ 2.2 µM), the MIC (Pasteurella multocida) was 0.5 µg/mL (≈ 1.1 µM) and the MIC (Escherichia coli [1]; read-out: Minimum Inhibitory Concentration, Escherichia coli strain 1, A, Inoculum of 10^2 organisms) was 1 µg/mL (≈ 2.2 µM). It also gave an MIC (Escherichia coli [1]; read-out: Minimum Inhibitory Concentration, Escherichia coli strain 1, B, Inoculum of 10^6 organisms) of 4 µg/mL (≈ 8.8 µM), an MIC (Escherichia coli [1]; read-out: Minimum Inhibitory Concentration, Escherichia coli strain 2, A, Inoculum of 10^2 organisms) of 2 µg/mL (≈ 4.4 µM) and an MIC (Escherichia coli [1]; read-out: Minimum Inhibitory Concentration, Escherichia coli strain 2, B, Inoculum of 10^6 organisms) of 16 µg/mL (≈ 35.2 µM). It also gave an MIC (Escherichia coli [1]; read-out: Minimum Inhibitory Concentration, Escherichia coli strain 3, A, Inoculum of 10^2 organisms) of 1 µg/mL (≈ 2.2 µM), an MIC (Escherichia coli [1]; read-out: Minimum Inhibitory Concentration, Escherichia coli strain 3, B, Inoculum of 10^6 organisms) of 2 µg/mL (≈ 4.4 µM) and an MIC (Escherichia coli [1]; read-out: Minimum Inhibitory Concentration, Escherichia coli strain 4, A, Inoculum of 10^2 organisms) of 1 µg/mL (≈ 2.2 µM). For the same compound, the MIC (Escherichia coli [1]; read-out: Minimum Inhibitory Concentration, Escherichia coli strain 4, B, Inoculum of 10^6 organisms) was 2 µg/mL (≈ 4.4 µM), the MIC (Escherichia coli [1]; read-out: Minimum Inhibitory Concentration, Escherichia coli strain 5, A, Inoculum of 10^2 organisms) was 1 µg/mL (≈ 2.2 µM) and the MIC (Escherichia coli [1]; read-out: Minimum Inhibitory Concentration, Escherichia coli strain 5, B, Inoculum of 10^6 organisms) was 2 µg/mL (≈ 4.4 µM). The MIC (Escherichia coli [1]; read-out: Minimum Inhibitory Concentration, Escherichia coli strain 6, A, Inoculum of 10^2 organisms) was 1 µg/mL (≈ 2.2 µM), the MIC (Escherichia coli [1]; read-out: Minimum Inhibitory Concentration, Escherichia coli strain 6, B, Inoculum of 10^6 organisms) was 2 µg/mL (≈ 4.4 µM) and the MIC (Escherichia coli [1]; read-out: Minimum Inhibitory Concentration, Escherichia coli strain 7, A, Inoculum of 10^2 organisms) was 1 µg/mL (≈ 2.2 µM). For the same compound, the MIC (Escherichia coli [1]; read-out: Minimum Inhibitory Concentration, Escherichia coli strain 7, B, Inoculum of 10^6 organisms) was 2 µg/mL (≈ 4.4 µM), the MBC (Klebsiella pneumoniae; [5]) was 2 µg/mL (≈ 4.4 µM) and the MIC (Klebsiella pneumoniae; [5]) was 2 µg/mL (≈ 4.4 µM). It also gave an MBC (Klebsiella pneumoniae; [6]) of 2 µg/mL (≈ 4.4 µM), an MIC (Klebsiella pneumoniae; [6]) of 1 µg/mL (≈ 2.2 µM) and an MBC (Klebsiella pneumoniae; [7]) of 2 µg/mL (≈ 4.4 µM). For the same compound, the MIC (Klebsiella pneumoniae; [7]) was 1 µg/mL (≈ 2.2 µM), the MBC (Klebsiella pneumoniae; [8]) was 4 µg/mL (≈ 8.8 µM) and the MIC (Klebsiella pneumoniae; [8]) was 2 µg/mL (≈ 4.4 µM). For the same compound, the MBC (Klebsiella pneumoniae; [9]) was 2 µg/mL (≈ 4.4 µM), the MIC (Klebsiella pneumoniae; [9]) was 2 µg/mL (≈ 4.4 µM) and the MBC (Klebsiella pneumoniae; [10]) was 4 µg/mL (≈ 8.8 µM). The MIC (Klebsiella pneumoniae; [10]) was 2 µg/mL (≈ 4.4 µM), the MBC (Proteus rettgeri; Proteus rettgeri strain 2) was 0.5 µg/mL (≈ 1.1 µM) and the MIC (Proteus rettgeri; Proteus rettgeri strain 2) was 0.25 µg/mL (≈ 0.55 µM). It also gave an MBC (Proteus rettgeri; Proteus rettgeri strain 3) of over 250 µg/mL, an MIC (Proteus rettgeri; Proteus rettgeri strain 3) of 4 µg/mL (≈ 8.8 µM) and an MBC (Enterobacter cloacae; [11]) of 8 µg/mL (≈ 17.6 µM). For the same compound, the MIC (Enterobacter cloacae; [11]) was 4 µg/mL (≈ 8.8 µM), the MBC (Enterobacter cloacae; [12]) was over 250 µg/mL and the MIC (Enterobacter cloacae; [12]) was 250 µg/mL (≈ 550 µM). The MBC (Enterobacter cloacae; [13]) was over 250 µg/mL, the MIC (Enterobacter cloacae; [13]) was over 250 µg/mL and the MBC (Enterobacter aerogenes [2]; [14]) was 125 µg/mL (≈ 275 µM). It also gave an MIC (Enterobacter aerogenes [2]; [14]) of 32 µg/mL (≈ 70.4 µM), an MBC (Enterobacter aerogenes [2]; [15]) of over 250 µg/mL and an MIC (Enterobacter aerogenes [2]; [15]) of 63 µg/mL (≈ 139 µM). It also gave an MBC (Enterobacter aerogenes [2]; [16]) of 250 µg/mL (≈ 550 µM), an MIC (Enterobacter aerogenes [2]; [16]) of 63 µg/mL (≈ 139 µM) and an MBC (Escherichia coli [3]; [17]) of 2 µg/mL (≈ 4.4 µM). The MIC (Escherichia coli [3]; [17]) was 2 µg/mL (≈ 4.4 µM), the MBC (Escherichia coli [3]; [18]) was 16 µg/mL (≈ 35.2 µM) and the MIC (Escherichia coli [3]; [18]) was 8 µg/mL (≈ 17.6 µM). It also gave an MBC (Escherichia coli [3]; [19]) of 2 µg/mL (≈ 4.4 µM), an MIC (Escherichia coli [3]; [19]) of 2 µg/mL (≈ 4.4 µM) and an MBC (Escherichia coli [3]; [20]) of 2 µg/mL (≈ 4.4 µM). The MIC (Escherichia coli [3]; [20]) was 1 µg/mL (≈ 2.2 µM), the MBC (Escherichia coli [3]; [21]) was 2 µg/mL (≈ 4.4 µM) and the MIC (Escherichia coli [3]; [21]) was 2 µg/mL (≈ 4.4 µM). For the same compound, the MBC (Escherichia coli [3]; [22]) was 4 µg/mL (≈ 8.8 µM), the MIC (Escherichia coli [3]; [22]) was 2 µg/mL (≈ 4.4 µM) and the MBC (Proteus mirabilis; [23]) was 8 µg/mL (≈ 17.6 µM). For the same compound, the MIC (Proteus mirabilis; [23]) was 4 µg/mL (≈ 8.8 µM), the MBC (Proteus mirabilis; [24]) was 16 µg/mL (≈ 35.2 µM) and the MIC (Proteus mirabilis; [24]) was 8 µg/mL (≈ 17.6 µM). For the same compound, the MBC (Proteus mirabilis; [25]) was 8 µg/mL (≈ 17.6 µM), the MIC (Proteus mirabilis; [25]) was 8 µg/mL (≈ 17.6 µM) and the MBC (Proteus mirabilis; [26]) was 8 µg/mL (≈ 17.6 µM). For the same compound, the MIC (Proteus mirabilis; [26]) was 4 µg/mL (≈ 8.8 µM), the MBC (Proteus mirabilis; [27]) was 8 µg/mL (≈ 17.6 µM) and the MIC (Proteus mirabilis; [27]) was 8 µg/mL (≈ 17.6 µM). It also gave an MBC (Proteus vulgaris; Proteus vulgaris strain 1) of 4 µg/mL (≈ 8.8 µM), an MIC (Proteus vulgaris; Proteus vulgaris strain 1) of 4 µg/mL (≈ 8.8 µM) and an MBC (Proteus vulgaris; Proteus vulgaris strain 2) of 16 µg/mL (≈ 35.2 µM). The MIC (Proteus vulgaris; Proteus vulgaris strain 2) was 8 µg/mL (≈ 17.6 µM), the MBC (Proteus vulgaris; Proteus vulgaris strain 4) was 16 µg/mL (≈ 35.2 µM) and the MIC (Proteus vulgaris; Proteus vulgaris strain 4) was 8 µg/mL (≈ 17.6 µM). The MIC (Erwinia sp.) was 1.5 µg/mL (≈ 3.3 µM), the “susceptibility of Neisseria gonorrhoeae” value (Neisseria gonorrhoeae) was “equally susceptible” and the MIC (Citrobacter sp.; read-out: Minimum inhibitory concentration) was 75 µg/mL (≈ 165 µM). The MIC (Citrobacter sp.; read-out: Minimum inhibitory concentration, Citrobacter sp., 1 strain) was over 125 µg/mL, the MIC (Enterobacter aerogenes [4]; A, Inoculum of 10^2 organisms) was 16 µg/mL (≈ 35.2 µM) and the MIC (Enterobacter aerogenes [4]; B, Inoculum of 10^6 organisms) was over 250 µg/mL.
